Numbers after ± are expanded uncertainties.
Assay: molar enthalpy of vaporization or sublimation
Conditions: 298.15 K; Crystal; drop microcalorimetry

| SMILES | molar enthalpy |
| --- | --- |
| O=[N+]([O-])c1ccc(Cl)cc1Cl [1,3-dichloro-4-nitrobenzene] | 21 ± 0.813 kcal/mol |
| O=[N+]([O-])c1cc(Cl)cc(Cl)c1 [1,3-dichloro-5-nitrobenzene] | 19.9 ± 0.717 kcal/mol |
| O=[N+]([O-])c1cc(Cl)ccc1Cl [1,4-dichloro-2-nitrobenzene] | 20.9 ± 1.2 kcal/mol |
| O=[N+]([O-])c1ccc(Cl)c(Cl)c1 [3,4-dichloro-1-nitrobenzene] | 20.5 ± 1.2 kcal/mol |
